{"source": "paper PMC4402242", "about": "(Chemico-biological interactions, 2014)", "key": {"[1]": {"tested_on": "isolated renal cortical cells (IRCC)", "test": "LDH release from isolated renal cortical cells", "conditions": "for direct nephrotoxic potential of the aminophenols in decreasing order / Cytotoxicity (LDH release) in words / LDH (% Release) 4-A2CP: IRCC; for direct nephrotoxic potential of the aminophenols in decreasing order: 0.5 and 1.0 mM; for direct nephrotoxic potential of the aminophenols in decreasing order / LDH (% Release) Pretreatment / LDH (% Release) 4-A2CP: 1 h; for Cytotoxicity (LDH release) in words: aminophenol 0.5 mM, 1 h (Fig. 2); for Effect of pretreatment on 4-A2CP cytotoxicity: pretreatment concentration and time per Table 1; for LDH (% Release) Pretreatment: pretreatment compound alone, plus 4-A2CP vehicle; for LDH (% Release) Pretreatment / LDH (% Release) 4-A2CP: mean ± S.E.; for LDH (% Release) 4-A2CP: % of total LDH"}, "[2]": {"tested_on": "isolated renal cortical cells (IRCC)"}, "[3]": {"tested_on": "Fischer 344 rat renal cortical slices", "conditions": "cited from earlier work"}, "peroxidase": {"tested_on": "peroxidase", "conditions": "cited from earlier work"}, "LLC-PK1 cells": {"tested_on": "LLC-PK1 cells", "conditions": "cited from earlier work"}, "[4]": {"tested_on": "Sprague-Dawley rat hepatocytes", "conditions": "cited from earlier work"}, "[5]": {"tested_on": "rat renal proximal tubules", "conditions": "rat renal proximal tubules with hepatic subcellular fractions; cited from earlier work"}}, "note": "“And” between values parts separate entries of the source, which are not always exact repeats. Equal values may be shown once. Read-outs that look alike come from different tables or passages of the source. Marks after values point to notes of the source that are not given here.", "data": [{"smiles": "Nc1cc(Cl)c(O)c(Cl)c1", "note": "[4-A2,6DCP, 4-amino-2,6-dichlorophenol]", "values": [{"measurement": "direct nephrotoxic potential of the aminophenols in decreasing order", "setting": "[1]", "result": "4-A2,6DCP > 4-A2CP > 4-AP > 4-A3CP"}, {"measurement": "Cytotoxicity (LDH release) in words", "setting": "[1]", "result": "marked cytotoxicity was observed"}]}, {"smiles": "Nc1ccc(O)cc1Cl", "note": "[4-A3CP, 4-amino-3-chlorophenol]", "values": [{"measurement": "direct nephrotoxic potential of the aminophenols in decreasing order", "setting": "[1]", "result": "4-A2,6DCP > 4-A2CP > 4-AP > 4-A3CP"}, {"measurement": "Cytotoxicity (LDH release) in words", "setting": "[1]", "result": "Cytotoxicity was not observed"}]}, {"smiles": "c1ccc(Nc2ccc(Nc3ccccc3)cc2)cc1", "note": "[DPPD, N,N’-diphenyl-p-phenylenediamine]", "values": [{"measurement": "Effect of pretreatment on 4-A2CP cytotoxicity", "setting": "[2]", "result": "did not reduce"}, {"measurement": "Effect on 4-A2,6-DCP cytotoxicity", "setting": "[3]", "result": "unable to attenuate"}]}, {"smiles": "O=C(O)CC(S)C(=O)O", "note": "(stereo not shown) [Mercaptosuccinate, mercaptosuccinic acid]", "values": [{"measurement": "Effect of pretreatment on 4-A2CP cytotoxicity", "setting": "[2]", "result": "attenuated"}]}, {"smiles": "CCCCOCCOCCOCc1cc2c(cc1CCC)OCO2", "note": "[Piperonyl butoxide]", "values": [{"measurement": "peroxidase inhibitor properties", "setting": "peroxidase", "result": "has peroxidase inhibitor properties"}, {"measurement": "Effect of pretreatment on 4-A2CP cytotoxicity", "setting": "[1]; 4-A2CP 0.5 and 1.0 mM", "result": "attenuated"}, {"measurement": "LDH (% Release) Pretreatment", "setting": "[1]; 1.0 mM", "result": "19.1 ± 2.5% and 25.0 ± 1.0%"}]}, {"smiles": "CC(C)(C(=O)c1cccnc1)c1cccnc1", "note": "[Metyrapone]", "values": [{"measurement": "peroxidase inhibitor properties", "setting": "peroxidase", "result": "but not metyrapone"}, {"measurement": "Effect of pretreatment on 4-A2CP cytotoxicity", "setting": "[1]; 4-A2CP 0.5 mM", "result": "potentiated"}, {"measurement": "Effect of pretreatment on 4-A2CP cytotoxicity", "setting": "[1]; 4-A2CP 1.0 mM", "result": "no potentiation or attenuation"}, {"measurement": "LDH (% Release) Pretreatment", "setting": "[1]; 1.0 mM", "result": "21.3 ± 0.6% and 20.6 ± 0.9%"}]}, {"smiles": "CC(=O)N[C@@H](CS)C(=O)O", "note": "[N-Acetyl-L-cysteine]", "values": [{"measurement": "Effect of pretreatment on 4-A2CP cytotoxicity", "setting": "[1]; 4-A2CP 1.0 mM", "result": "partially attenuated"}]}, {"smiles": "O=C1O[C@H]([C@@H](O)CO)C(O)=C1O", "note": "[Ascorbate]", "values": [{"measurement": "Effect of pretreatment on 4-A2CP cytotoxicity", "setting": "[1]; 4-A2CP 0.5 and 1.0 mM", "result": "attenuated"}]}, {"smiles": "Nc1ccc(O)c(Cl)c1", "note": "[4-A2CP, 4-amino-2-chlorophenol]", "values": [{"measurement": "LDH (% Release) 4-A2CP", "setting": "[1]; 4-A2CP 0.5 mM alone", "result": "33.0 ± 2.7 ^b % and 52.0 ± 2.5 ^b % and 39.5 ± 0.6 ^b % and 43.0 ± 1.4 ^b % and 38.3 ± 4.9 ^b % and 43.5 ± 3.2 ^b %"}, {"measurement": "LDH (% Release) 4-A2CP", "setting": "[1]; 4-A2CP 1.0 mM alone", "result": "42.6 ± 0.6 ^b % and 54.4 ± 2.3 ^b % and 51.3 ± 3.2 ^b % and 51.4 ± 4.9 ^b % and 53.9 ± 6.5 ^b % and 49.9 ± 4.3 ^b %"}, {"measurement": "direct nephrotoxic potential of the aminophenols in decreasing order", "setting": "[1]", "result": "4-A2,6DCP > 4-A2CP > 4-AP > 4-A3CP"}, {"measurement": "Cytotoxicity (LDH release) in words", "setting": "[1]", "result": "marked cytotoxicity was observed"}]}, {"smiles": "CCCCCCCCN", "note": "[N-Octylamine]", "values": [{"measurement": "Effect of pretreatment on 4-A2CP cytotoxicity", "setting": "[1]; 4-A2CP 0.5 and 1.0 mM", "result": "No alteration"}, {"measurement": "LDH (% Release) Pretreatment", "setting": "[1]; 0.2 mM", "result": "27.5 ± 1.1% and 20.0 ± 0.9%"}]}, {"smiles": "Cn1cc[nH]c1=S", "note": "[Methimazole]", "values": [{"measurement": "LDH (% Release) Pretreatment", "setting": "[1]; 1.0 mM", "result": "22.0 ± 0.5% and 19.7 ± 2.2%"}]}, {"smiles": "Cc1cc(C(C)(C)C)c(O)c(C(C)(C)C)c1", "note": "[BHT, butylated hydroxytoluene]", "values": [{"measurement": "Effect on 4-AP cytotoxicity", "setting": "LLC-PK1 cells", "result": "did not prevent"}]}, {"smiles": "N[C@@H](CCC(=O)N[C@@H](CS)C(=O)NCC(=O)O)C(=O)O", "note": "[Glutathione]", "values": [{"measurement": "Effect of pretreatment on 4-A2CP cytotoxicity", "setting": "[1]; 4-A2CP 1.0 mM", "result": "completely attenuated"}]}, {"smiles": "CC(=O)N1CCN(c2ccc(OCC3COC(Cn4ccnc4)(c4ccc(Cl)cc4Cl)O3)cc2)CC1", "note": "(stereo not shown) [Ketoconazole]", "values": [{"measurement": "LDH (% Release) Pretreatment", "setting": "[1]; 0.1 mM", "result": "22.4 ± 0.9% and 26.1 ± 1.7%"}]}, {"smiles": "Cc1c(C)c2c(c(C)c1O)CC[C@@](C)(CCC[C@H](C)CCC[C@H](C)CCCC(C)C)O2", "note": "[α-Tocopherol]", "values": [{"measurement": "Effect on 4-A2,6-DCP cytotoxicity", "setting": "[3]", "result": "unable to attenuate"}]}, {"smiles": "Nn1nnc2ccccc21", "note": "[1-aminobenzotriazole]", "values": [{"measurement": "Effect on 4-AP metabolism", "setting": "[4]", "result": "did not alter"}, {"measurement": "Effect on 4-AP nephrotoxicity", "setting": "[5]", "result": "did not alter"}]}, {"smiles": "NNC(=O)c1ccncc1", "note": "[Isoniazid]", "values": [{"measurement": "Effect of pretreatment on 4-A2CP cytotoxicity", "setting": "[1]; 4-A2CP 0.5 and 1.0 mM", "result": "No alteration"}, {"measurement": "LDH (% Release) Pretreatment", "setting": "[1]; 1.0 mM", "result": "18.6 ± 0.7% and 20.7 ± 0.9%"}]}]}
